In US20220257571A1, “INHIBITOR OF MAP KINASE INTERACTING SERINE/THREONINE KINASE 1 (MNK1) AND MAP KINASE INTERACTING SERINE/THREONINE KINASE 2 (MNK2), CANCER THERAPY AND THERAPEUTIC COMBINATIONS” (FUNPACIÓ HOSPITAL UNIVERSITARI VALL D'HEBRON - INSTITUT DE …, priority 2019, published 2022):

What was measured:
[1] = system: eIF4E phosphorylation in melanoma cells (A375M); assay: titration of eIF4E phosphorylation in A375M cells; assay type: cell-based
Method: (§1) Commercially available MDA-MB-231, MDA-MB-468, MCF7 and A375M, IMR90 (IMR-90 (ATCC® CCL-186TH) cells were grown at 37° C. and 5% CO2 in DMEM medium (Dulbecco's Modified Eagle Medium, 4.5 g/I glucose; 30 mg/I L-Glutamine (Gibco)) supplemented with 10% foetal bovine serum, 100 U/ml penicillin and 100 μg/ml streptomycin.
(§2) Inhibition of eIF4E phosphorylation was quantified by Western Blot. Cells were seeded in 60 mm plates (700,000 cells for 24 h, 500,000 cells for 48 h and 300,000 cells for 72 h).
(§3) After 24 h, the treatments were added. The stocks of compounds were prepared in […] at a concentration 200 times more concentrated than the treatment concentration. Thus, in all cases, the final concentration of DMSO in the medium was 0.5%.
(§4) After incubation, proteins were removed and Western Blot was performed. On ice, the plates were washed with PBS and the cells were lysed with 60 μl lysis buffer (50 mM Tris, 200 mM NaCl, 5 mM EDTA, 0.1% Triton 100×, pH 7.5 supplemented with protease inhibitors (EDTA-free Protease Inhibitor Cocktail Set III, Calbiochem) and phosphatase inhibitors (Phosphatase Inhibitor Cocktail Set II, Calbiochem)). The samples were centrifuged at 15,000 g and the supernatant was quantified by the Bradford method. […] Selectivity against MNK was analysed with ERK, p-ERK, MNK1, p-MNK1, 4EBP1 and p-4EBP1 antibodies. […]

[2] = system: eIF4E phosphorylation in MDA-MB-231 cells; assay: inhibition of eIF4E phosphorylation by Western Blot in MDA-MB-231 cells; assay type: cell-based, human
Method: as §1, §2, §3
After incubation, proteins were removed and Western Blot was performed. On ice, the plates were washed with PBS and the cells were lysed with 60 μl lysis buffer (50 mM Tris, 200 mM NaCl, 5 mM EDTA, 0.1% Triton 100×, pH 7.5 supplemented with protease inhibitors (EDTA-free Protease Inhibitor Cocktail Set III, Calbiochem) and phosphatase inhibitors (Phosphatase Inhibitor Cocktail Set II, Calbiochem)). The samples were centrifuged at 15,000 g and the supernatant was quantified by the Bradford method. The samples were all diluted to the same concentration with a lysis buffer and loading buffer (Laemmli buffer) and denatured for 5 minutes at 95° C. The proteins were separated on a 12% […] gel (20 μg were loaded per well) and transferred to a PDVF (Polyvinylidene fluoride) membrane. β-Actin antibodies, abbreviated as “actin” in the figures (Calbiochem), eIF4E (anti-rabbit, Cell signalling), and phosphorylated-eIF4E (S209) (anti-rabbit, Cell signalling) in 5% BSA in TBST were used to study the activity of the compounds. Selectivity against MNK was analysed with ERK, p-ERK, MNK1, p-MNK1, 4EBP1 and p-4EBP1 antibodies.

[3] = system: eIF4E phosphorylation in breast cancer cells (MDA-MB-468); assay: titration of eIF4E phosphorylation in MDA-MB-468 cells; assay type: cell-based
Method: as §1, §2, §3, §4

[4] = target: T1, EphA4 receptor tyrosine kinase (Homo sapiens, UniProt P54764); assay: inhibitory test of EphA4 in the kinase panel; assay type: biochemical
T1 construct: purchased Proqinase
T1 sequence (P54764 20-986): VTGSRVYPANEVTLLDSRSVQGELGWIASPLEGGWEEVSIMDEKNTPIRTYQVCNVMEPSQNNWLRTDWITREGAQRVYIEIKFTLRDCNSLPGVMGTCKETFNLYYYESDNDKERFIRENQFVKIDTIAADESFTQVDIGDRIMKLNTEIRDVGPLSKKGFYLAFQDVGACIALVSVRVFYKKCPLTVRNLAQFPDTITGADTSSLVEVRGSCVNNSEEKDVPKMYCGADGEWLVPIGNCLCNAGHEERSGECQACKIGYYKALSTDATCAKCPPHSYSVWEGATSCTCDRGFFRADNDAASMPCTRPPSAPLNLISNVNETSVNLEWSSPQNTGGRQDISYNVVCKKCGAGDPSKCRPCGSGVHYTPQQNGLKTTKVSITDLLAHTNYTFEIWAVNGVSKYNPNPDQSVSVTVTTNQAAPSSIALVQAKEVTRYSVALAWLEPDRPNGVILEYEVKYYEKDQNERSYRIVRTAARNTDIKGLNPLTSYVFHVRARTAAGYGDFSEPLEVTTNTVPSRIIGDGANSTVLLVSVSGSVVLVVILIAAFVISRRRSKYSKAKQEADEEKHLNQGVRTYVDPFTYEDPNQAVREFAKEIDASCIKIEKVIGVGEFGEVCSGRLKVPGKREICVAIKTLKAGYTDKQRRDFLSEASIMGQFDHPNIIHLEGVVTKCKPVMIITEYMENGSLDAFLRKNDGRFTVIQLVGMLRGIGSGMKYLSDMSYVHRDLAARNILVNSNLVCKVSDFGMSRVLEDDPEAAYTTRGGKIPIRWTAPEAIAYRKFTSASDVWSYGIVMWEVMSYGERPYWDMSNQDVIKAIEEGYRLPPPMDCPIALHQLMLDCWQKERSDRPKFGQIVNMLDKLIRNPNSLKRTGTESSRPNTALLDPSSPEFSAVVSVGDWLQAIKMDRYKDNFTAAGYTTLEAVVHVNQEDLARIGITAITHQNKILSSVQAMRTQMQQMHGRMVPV
Method: (§5) The kinase activity of the compound was measured by a radiometric kinase assay (^33PanQinase® Activity Assay) carried out by Proqinase (www.proqinase.com).
(§6) The assays were carried out in 96-well FlashPlates™ by PerkinElmer (Boston, Mass., USA) with a reaction volume of 50 μl. The reaction cocktail was pipetted in 4 steps: (1) 20 μl buffer, (2) 5 μl ATP solution (in H2O), (3) 5 μl compound (in 10% DMSO) and (4) 20 μl enzyme/substrate mixture. Lastly, the cocktail contained 70 mM HEPES-NaOH pH 7.5, 3 mM MgCl2, 3 mM MnCl2, 3 μM sodium orthovanadate, 1.2 mM DTT, 50 μg/ml PEG20000, ATP (1 μM for MNK1 and 0.3 μM for MNK2), [γ-^33P]-ATP (approx. […] per well), protein kinase (variable amounts depending on the batch) and substrate (2 μg/50 μl).
Reaction cocktails were incubated at 30° C. for 60 minutes. The reaction was stopped with 50 μl of 2% H3PO4 (v/v), the plates were sucked, they were washed twice with 200 μl of 0.9% NaCl (w/v) and the incorporation of ^33Pi (MicroBeta microplate scintillation counter, Wallac) was determined. […]
(§7) The residual activity (in %) for each well of a particular plate was calculated using the following formula (wherein high control is the kinase activity in absence of an inhibitor and low control is the radioactivity value of the substrate in absence of a kinase).
(§8) To study selectivity, residual activity was measured at 1 μM from a 320-kinase panel.

MDA-MB-231 cells = assay: FACS analysis of cell cycle and subG1, MDA-MB-231; assay type: cell-based; conditions: MDA-MB-231, higher concentrations
Method: To determine how cell growth is affected at higher concentrations of EB1, a FACS analysis was performed to monitor the state of the cell cycle and the percentage of cells in subG1 as an indicator of cell death. […] Equivalent results have been described for the MNK1/2 inhibitor BAY 11433296 (FIG. 4).

22Rv1 cells = assay: apoptosis assay of 22Rv1 cells (Propidium Iodide staining); assay type: cell-based; conditions: 22Rv1, 72 h, dual treatment EB1 and Enzalutamide
Method: Dual inhibition of AR and eIF4E phosphorylation induces cell death via apoptosis. […] With this aim, 22Rv1 (A) cells were treated either with vehicle (DMSO), enzalutamide, EB1 or a combination of both with the indicated concentrations for 72 h. Whole cell lysates were then prepared and subjected to western blot analysis with the indicated antibodies. […] Increase in CI-PARP levels indicated apoptotic induction under the combinatory treatment. (B) Apoptosis assays of 22Rv1 cell line after treatment with the indicated concentrations of Enzalutamide, EB1 and the combination of both for 72 h, quantified by analysis of fragmented/condensed chromatin after Propidium Iodide staining. […] Representative Propidium Iodide and Hoechst staining images of 22Rv1 cell line were obtained, although data are not shown. Data are mean of two technical replicates from one experiment ±SEM ***p<0.001 two-tailed Student's test

[5] = system: eIF4E phosphorylation, AR and AR-V7 in 22Rv1 cells; assay: western blot analysis in 22Rv1 cells; assay type: cell-based; conditions: for levels of AR, AR-V7 and eIF4E phosphorylation: 22Rv1, 72 h
MNK1/2 [6] = assay: radiometric kinase assay (33PanQinase Activity Assay), IC50; assay type: biochemical
Method: as §5, §6
(§9) Reaction cocktails were incubated at 30° C. for 60 minutes. The reaction was stopped with 50 μl of 2% H3PO4 (v/v), the plates were sucked, they were washed twice with 200 μl of 0.9% NaCl (w/v) and the incorporation of ^33Pi (MicroBeta microplate scintillation counter, Wallac) was determined. All assays were performed with a Beckman Coulter/SAGIAN™ system.
as §7

MNK1/2 [7] = target: T2, MNK1/2; assay: as above; assay type: biochemical; conditions: MNK1/2, isoform not stated; read-out: enzymatic IC50
T2 construct: rows headed: enzymatic IC50
Method: as §5, §6, §9, §7

MNK1 = target: T3, MNK1 (Homo sapiens, UniProt Q9BUB5); assay: radiometric kinase assay (33PanQinase Activity Assay), MNK1; assay type: biochemical
T3 construct: purchased Proqinase
T3 sequence (Q9BUB5 whole entry): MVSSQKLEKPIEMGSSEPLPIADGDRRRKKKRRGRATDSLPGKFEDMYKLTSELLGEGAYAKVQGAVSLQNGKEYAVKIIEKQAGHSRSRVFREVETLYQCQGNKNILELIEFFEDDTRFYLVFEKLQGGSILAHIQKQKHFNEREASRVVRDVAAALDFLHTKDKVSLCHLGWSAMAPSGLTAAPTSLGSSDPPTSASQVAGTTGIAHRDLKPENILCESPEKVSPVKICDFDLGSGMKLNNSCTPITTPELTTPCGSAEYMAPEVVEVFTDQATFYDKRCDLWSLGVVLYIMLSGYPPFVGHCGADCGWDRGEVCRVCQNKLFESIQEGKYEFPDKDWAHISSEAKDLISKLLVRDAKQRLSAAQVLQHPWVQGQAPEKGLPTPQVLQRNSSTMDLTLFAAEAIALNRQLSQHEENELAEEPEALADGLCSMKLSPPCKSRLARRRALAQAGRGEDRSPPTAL
Method: as §5, §6, §9, §7
To screen compounds, the residual activity of both kinases was analysed after treatment with 10 μM of the compounds.
as §8

Nc1n[nH]c2nc(-c3ccccc3)cc(-c3ccccc3)c12 [EB1, 4,6-diphenyl-1H-pyrazolo[3,4-b]pyridin-3-amine]
activity as MNK inhibitor (eIF4E phosphorylation) [1]: active | EC50 ([2]; Homo sapiens, MDA-MB-231 triple-negative breast cancer cells, read-out: in vitro EC50, inhibition of eIF4E phosphorylation): ~1500 nM | concentration at which eIF4E phosphorylation is significantly reduced ([2]; MDA-MB-231): greater than 2.5 μM | concentration giving almost complete inhibition of eIF4E phosphorylation ([2]; MDA-MB-231): ≥ 2.5 µM | duration of the effect on eIF4E phosphorylation ([2]; MDA-MB-231): at least 72 h | reversal of the increased eIF4E phosphorylation caused by doxorubicin ([2]; MDA-MB-231, 5 μM EB1 with doxorubicin): can be reversed | effect on components of the signalling pathway (p-MNK, ERK, 4E-BP1) ([2]; MDA-MB-231, Western Blot): does not affect any of the components of the signalling pathway | activity as MNK inhibitor (eIF4E phosphorylation) [3]: active | inhibition at 1 µM [4]: 10% | cells in the G1 phase of the cell cycle (MDA-MB-231 cells): increase of cells could be observed in the G1 phase | apoptotic cell population (22Rv1 cells): Remarcable increase in apoptotic cell population | inhibition of eIF4E phosphorylation ([5]; 22Rv1, 24 h EB1 treatment): Dose dependent inhibition | levels of AR, AR-V7 and eIF4E phosphorylation ([5]; EB1 alone): reduction of AR, its splice variant AR-V7 and eIF4E phosphorylation | levels of AR, AR-V7 and eIF4E phosphorylation ([5]; combination of EB1 and enzalutamide): more pronounced | mode of MNK1/2 inhibition (MNK1/2 [6]): non-ATP competitive | IC50 (MNK1/2 [7]): 700 nM | remaining activity at 10 µM (MNK1; after treatment with 10 μM compound, ATP 1 μM, read-out: residual activity of MNK1): 14% | inhibition at 1 µM (MNK1; at 1 uM, kinase panel): 48%
